Results published in ChEMBL document CHEMBL1201862, “PubChem BioAssay data set” (2004).
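Grown in 96-well plates, cells were treated for 48 hours with each compound at five concentrations. Insufficient inhibition: endpoint recorded as highest concentration tested. At the GI50, growth is halved.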 Active and inactive are the calls of the source. No stated cut-off is given here; in the data, active = GI50 up to about 1.1 µM and inactive = higher.

What was measured:
Assay in all cases: NCI anticancer screen, dose series, 48 h
COLO 205 = tested on: COLO 205
HCT-15 = tested on: HCT-15
HOP-62 = tested on: HOP-62
HOP-92 = tested on: HOP-92
HT-29 = tested on: HT-29
IGROV-1 = tested on: IGROV-1
MOLT-4 = tested on: MOLT-4
NCI-H23 = tested on: NCI-H23
NCI-H460 = tested on: NCI-H460
OVCAR-3 = tested on: OVCAR-3
OVCAR-8 = tested on: OVCAR-8
SF-268 = tested on: SF-268
SF-539 = tested on: SF-539
SK-MEL-28 = tested on: SK-MEL-28
SK-MEL-5 = tested on: SK-MEL-5
SW-620 = tested on: SW-620
U-251 = tested on: U-251
UACC-257 = tested on: UACC-257
UO-31 = tested on: UO-31
XF498 = tested on: XF498

| SMILES | GI50 (COLO 205) | GI50 (HCT-15) | GI50 (HOP-62) | GI50 (HOP-92) | GI50 (HT-29) | GI50 (IGROV-1) | GI50 (MOLT-4) | GI50 (NCI-H23) | GI50 (NCI-H460) | GI50 (OVCAR-3) | GI50 (OVCAR-8) | GI50 (SF-268) | GI50 (SF-539) | GI50 (SK-MEL-28) | GI50 (SK-MEL-5) | GI50 (SW-620) | GI50 (U-251) | GI50 (UACC-257) | GI50 (UO-31) | GI50 (XF498) |
| --- | --- | --- | --- | --- | --- | --- | --- | --- | --- | --- | --- | --- | --- | --- | --- | --- | --- | --- | --- | --- |
| CC(=O)OC[C@H]1[C@@H]2C(CC[C@]13CO3)OC(=O)CC(C)[C@]2(C)CCc1ccoc1 (stereo partly specified) | > 100 µM (inactive) | > 100 µM | > 100 µM (inactive) | > 100 µM (inactive) | > 100 µM (inactive) | > 100 µM (inactive) | > 100 µM (inactive) | > 100 µM (inactive) | > 100 µM (inactive) | > 100 µM (inactive) | > 100 µM (inactive) | > 100 µM (inactive) | > 100 µM (inactive) | > 100 µM (inactive) | > 100 µM (inactive) | > 100 µM (inactive) | > 100 µM (inactive) | > 100 µM (inactive) | > 100 µM (inactive) | – |
| C=CC1OC(CCCOC(=O)C(C)(C)C)O[C@@H]1CC (stereo partly specified) | > 100 µM (inactive) | > 100 µM | > 100 µM (inactive) | > 100 µM (inactive) | > 100 µM (inactive) | > 100 µM (inactive) | > 100 µM (inactive) | > 100 µM (inactive) | 37.2 µM (inactive) | > 100 µM (inactive) | > 100 µM (inactive) | > 100 µM (inactive) | > 100 µM (inactive) | > 100 µM (inactive) | > 100 µM (inactive) | > 100 µM (inactive) | > 100 µM (inactive) | > 100 µM (inactive) | > 100 µM (inactive) | – |
| Cc1ccc(C)c(NC(=O)C(=O)C(C(=O)c2ccc3ccccc3c2)C2OC(=O)c3ccccc32)c1 (stereo unspecified) | 15.8 µM (inactive) | 21.5 µM | 20.2 µM (inactive) | 26.1 µM (inactive) | 28.1 µM (inactive) | 18.2 µM (inactive) | 5.25 µM (inactive) | 15.6 µM (inactive) | 11.6 µM (inactive) | – | 7.82 µM (inactive) | 3.57 µM (inactive) | 4.75 µM (inactive) | 12.4 µM (inactive) | 17.2 µM (inactive) | 11.2 µM (inactive) | 4.19 µM (inactive) | 15.5 µM (inactive) | 16.5 µM (inactive) | 14.5 µM (inactive) |
| OC(c1cccnc1Cl)c1nc2ccccc2c2ccnc(Cl)c12 (stereo unspecified) | 3.38 µM (inactive) | 3.04 µM | 2.15 µM (inactive) | 18.7 µM (inactive) | 4.6 µM (inactive) | 5.02 µM (inactive) | 3.67 µM (inactive) | 20.5 µM (inactive) | 4.4 µM (inactive) | 6.08 µM (inactive) | 9.12 µM (inactive) | 6.21 µM (inactive) | 3.02 µM (inactive) | 23.7 µM (inactive) | 3.46 µM (inactive) | 3.06 µM (inactive) | 4.18 µM (inactive) | > 100 µM (inactive) | 8.87 µM (inactive) | – |
| NNC(N)Nc1ccccc1 (stereo unspecified) | > 100 µM (inactive) | > 100 µM | > 100 µM (inactive) | > 100 µM (inactive) | > 100 µM (inactive) | > 100 µM (inactive) | > 100 µM (inactive) | > 100 µM (inactive) | > 100 µM (inactive) | > 100 µM (inactive) | > 100 µM (inactive) | > 100 µM (inactive) | > 100 µM (inactive) | > 100 µM (inactive) | > 100 µM (inactive) | > 100 µM (inactive) | > 100 µM (inactive) | > 100 µM (inactive) | > 100 µM (inactive) | – |
| CCOP(=O)(COCCn1nc(Br)c(=O)[nH]c1=O)OCC | > 100 µM (inactive) | > 100 µM | > 100 µM (inactive) | > 100 µM (inactive) | – | > 100 µM (inactive) | > 100 µM (inactive) | > 100 µM (inactive) | > 100 µM (inactive) | > 100 µM (inactive) | > 100 µM (inactive) | > 100 µM (inactive) | > 100 µM (inactive) | > 100 µM (inactive) | > 100 µM (inactive) | > 100 µM (inactive) | > 100 µM (inactive) | > 100 µM (inactive) | > 100 µM (inactive) | – |
| CCOC(=O)c1c(NC(=O)Nc2ccccc2)c(C(N)=O)c2n1CCCCC2 | > 100 µM (inactive) | > 100 µM | > 100 µM (inactive) | > 100 µM (inactive) | > 100 µM (inactive) | > 100 µM (inactive) | > 100 µM (inactive) | > 100 µM (inactive) | > 100 µM (inactive) | – | > 100 µM (inactive) | > 100 µM (inactive) | > 100 µM (inactive) | > 100 µM (inactive) | > 100 µM (inactive) | > 100 µM (inactive) | > 100 µM (inactive) | > 100 µM (inactive) | > 100 µM (inactive) | – |
